# From US20070055448A1, “Primary rat hepatocyte toxicity modeling” (Gene Logic Inc., priority 2003, published 2007)
# Assays:
# [1] = dogs, after treatment; cited from earlier work
# [2] = 180 reported cases; cited from earlier work
# [3] = 0.1, 1, 2, 3, 4 mL/kg ip; 2.5 mL/kg po; peak within 48 hours post dose; cited from earlier work
# [4] = AY-25329 repeated-dose rat study: serum chemistry and light microscopy; type: in vivo, rats
# Text: The present inventors have noted indications of liver and renal effects of AY-25329 by changes in serum chemistry. […] Most of these markers of renal and liver dysfunction remained altered throughout the 14 day study period.
# [5] = human, in vivo; cited from earlier work
# [6] = Lovastatin rat dosing study: liver tissue examination; type: in vivo, rats
# [7] = oral doses; cited from earlier work
smiles,measurement,setting,value
"Cl.Nc1nc2c(Cc3ccsc3)c[nH]c2c(=O)[nH]1.O [CI-1000, 4H-pyrrolo:3,2-d:pyrimidin-4-one, 2-amino-3,5-dihydro-7-(3-thienylmethyl)-monohydrochloride monohydrate]",serum ALT levels,[1],increased serum ALT levels
O=C(O)Cc1ccccc1Nc1c(Cl)cccc1Cl [diclofenac],jaundice among symptomatic patients,[2],75 % of the symptomatic patients
"ClC(Cl)(Cl)Cl [CCl4, carbon tetrachloride]",peak increase of ALT and AST levels,[3],5-10 fold
O=C(CCN1CCN2CCCC2C1)N1c2ccccc2Sc2ccc(Cl)cc21 (stereo not shown) [AY-25329],histopathology of kidney and liver,"[4]; 14 days of repeated dosing, 250 mg/kg/day",nephrosis and alterations in the peripheral lobes of the liver and in the cytoplasm of hepatocytes were evident
same,light microscopic analysis of the liver,[4]; as early as 6 and 24 hours,increased number of hepatocytic mitotic figures and decreased glycogen content
same,"serum levels of creatinine, BUN, ALT, triglycerides and cholesterol","[4]; as early as 6 hours after the first dose, most markers remained altered throughout the 14 day study period",statistically significant increases
"CCCC(CCC)C(=O)O [valproate, n-dipropylacetic acid]",patients with elevated levels of hepatic enzymes,[5],about 40 % of patients
CC[C@H](C)C(=O)O[C@H]1C[C@@H](C)C=C2C=C[C@H](C)[C@H](CC[C@@H]3C[C@@H](O)CC(=O)O3)[C@H]21 [lovastatin],effects in liver tissue,"[6]; 9 or 90 mg/kg twice a day, after 6 or after 24 hours",no effects were noted
same,liver cell changes,[6]; after 14 days of treatment at the higher dosage (90 mg/kg twice a day),abnormal vacuolization of the cytoplasm
same,metabolites excreted in the urine,[7],less than 13%
